PubChem BioAssay (NCI)
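96-well plates; 48 h exposure; 5 concentrations. Endpoints by linear interpolation between flanking doses. Not reached: highest tested concentration assigned. TGI: total growth inhibition.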

Test system: P388 leukemia
Assay: NCI tumour cell line growth inhibition, 48 h

CCSc1nc(COC(=O)NC)c(COC(=O)NC)n1C
TGI: > 100 µM
